Data taken from patent publication US8003689B2, “Metabolites of selective androgen receptor modulators and methods of use thereof” (GTx, Inc., priority 2008, dated 2011).

Tests used:
[1] = Phase I microsome reactions of Compound II, human; assay type: in vitro ADME; details: Human liver microsomes; not absolutely quantitative (n = 2)
Protocol: (§1) Test compound stock solutions were prepared in acetonitrile at 10 mM, 200 times (200×) the final concentration. The stock solutions were added in incubation mixtures to obtain the final drug concentration of 50 μM, containing 0.5% acetonitrile. A concentration of 50 μM was utilized to allow for detection of possible minor metabolites (select studies were run at 10 μM for confirmatory purposes). Human, monkey, dog, rat, mouse microsomes were all utilized at a final concentration of 1.0 mg/ml. Duplicate wells were used for each time point (0 and 120 minutes). Incubation was conducted at 37° C. in a shaking water bath. The final volume for each reaction was 200 μl, composed of: 66 μl of 0.2 M KPO4 buffer, (pH 7.4); 73 μl of H2O, 10 μl of 20 mg/ml microsome stock; 1.0 μl of 10 mM compound stock, and 50 μl of NRS solution. The NRS solution consisting of glucose-6-phosphate dehydrogenase, NADP+, MgCl2, and glucose-6-phosphate, was prepared as described in manufacturer's instructions. […]
(§2) The mass spectrometers were operated in EMS mode in order to detect all possible metabolites. […] Intensity of putative metabolite was semi-quantitated using the peak area of the metabolites in XIC, which was subtracted with the peak area of time zero control at the same retention time with the metabolites.

[2] = Phase I microsome reactions of Compound II, monkey; assay type: in vitro ADME; details: Monkey liver microsomes; not absolutely quantitative (n = 2)
Protocol: as §1, §2

[3] = Phase I microsome reactions of Compound II, dog; assay type: in vitro ADME; details: Dog liver microsomes; not absolutely quantitative (n = 2)
Protocol: as §1, §2

[4] = Phase I microsome reactions of Compound II, rat; assay type: in vitro ADME; details: Rat liver microsomes; not absolutely quantitative (n = 2)
Protocol: as §1, §2

[5] = Phase I microsome reactions of Compound II, mouse; assay type: in vitro ADME; details: Mouse liver microsomes; not absolutely quantitative (n = 2)
Protocol: as §1, §2

[6] = Phase I and II microsome reactions (+UDPGA) of Compound II, human; assay type: in vitro ADME; details: Human liver microsomes (+UDPGA)
Protocol: (§3) For microsome reactions performed under conditions allowing for both phase I and II metabolism, the initial procedure and reaction conditions were followed similarly as described above. Additional cofactors were also included in each reaction to maximize the potential for in vitro glucuronidation to occur. UDPGA was added at a final concentration of 5.0 mM. Saccharolactone (β-glucuronidase inhibitor) and alamethicin (pore forming peptide) were added to each reaction at a final concentration of 5.0 mM and 50 μg/ml, respectively.
(§4) Each 200 μl microsomal reaction solution was composed of: 66 μl of 0.2 M KPO4 buffer, (pH 7.4); 50 μl of NRS solution (as described above); 66 μl of UDPGA (15 mM stock); 5.0 μl of saccharolactone (200 mM stock); 0.5 μl of alamethicin (20 mg/ml); 0.6 μl of MgCl2 (1 M stock); and 10 μl of microsomes (20 mg/ml stock).
(§5) At the end of incubation, 100 μl of reaction solution under incubation was transferred to a sample well containing 100 μl of ice cold acetonitrile to quench the reaction. […]
as §2

[7] = Phase I and II microsome reactions (+UDPGA) of Compound II, monkey; assay type: in vitro ADME; details: Monkey liver microsomes (+UDPGA)
Protocol: as §3, §4, §5, §2

[8] = Phase I and II microsome reactions (+UDPGA) of Compound II, dog; assay type: in vitro ADME; details: Dog liver microsomes (+UDPGA)
Protocol: as §3, §4, §5, §2

[9] = Phase I and II microsome reactions (+UDPGA) of Compound II, rat; assay type: in vitro ADME; details: Rat liver microsomes (+UDPGA)
Protocol: as §3, §4, §5, §2

[10] = Phase I and II microsome reactions (+UDPGA) of Compound II, mouse; assay type: in vitro ADME; details: Mouse liver microsomes (+UDPGA)
Protocol: as §3, §4, §5, §2

human hepatocytes = test: Hepatocyte assay of Compound II, human; assay type: in vitro ADME
Protocol: (§6) The stock solutions (10 mM in acetonitrile) for the test compounds were diluted in the incubation media to a working concentration of 100 μM (2×). Thawing frozen hepatocytes was followed by performing Percoll purification as described in manufacturer's manual. Primary hepatocytes were resuspended in incubation media and viability was measured using trypan blue exclusion method. The initial viability score was registered as ‘T0’ (time point of 0 minute), and viability was required to be at least ˜70% at this point for the experiment to continue. Cells were washed a second time (60 g for 5 minutes) with supplemented DMEM and the final concentration was adjusted to […] (2×). Samples were set up in 48-well plates, using 2 wells per each time point. A trypan blue well was also set up for viability analysis at the end of study (T=120 min). 100 μl of the 2× drug solution was combined with 100 μl of the 2× hepatocyte suspension. Final concentration was […] (200,000 cells/well) and 50 μM compound. Final concentration of acetonitrile was 0.5%. […]
as §2

monkey hepatocytes = test: Hepatocyte assay of Compound II, monkey; assay type: in vitro ADME
Protocol: as §6, §2

dog hepatocytes = test: Hepatocyte assay of Compound II, dog; assay type: in vitro ADME
Protocol: as §6, §2

Rat Hepatocytes [11] = test: Hepatocyte assay of Compound II, rat; assay type: in vitro ADME
Protocol: as §6, §2

mouse hepatocytes = test: Hepatocyte assay of Compound II, mouse; assay type: in vitro ADME
Protocol: as §6, §2

[12] = In vitro metabolites of Compound I in rat liver microsomes; assay type: in vitro ADME; details: metabolite formed from Compound I
Rat Hepatocytes [13] = test: In vitro metabolites of Compound I in rat hepatocytes; assay type: in vitro ADME; details: metabolite formed from Compound I
[14] = Metabolic stability in primary monkey hepatocytes; assay type: in vitro ADME
[15] = system: primary monkey hepatocytes; test: Metabolic stability in primary monkey hepatocytes; assay type: in vitro ADME
[16] = Metabolic stability in human liver microsomes; assay type: in vitro ADME
Protocol: Human liver microsomes and hepatocytes were utilized at a final concentration of 1.0 mg/ml and 1×10^6 cells/ml, respectively. Duplicate wells were used for each time point (0, 5, 10, 30, and 60 minutes). The concentrations of parent drug remaining in each well were analyzed on an MDS/Sciex API4000 Q Trap system with electrospray ionization (ESI) in the positive and/or negative SIM mode, depending on the test compound(s). […] For hepatocyte assays, cell viability was also monitored at each time point (from replicate wells) using the Trypan Blue exclusion method.

[17] = Permeability and efflux potential across Caco-2 monolayers; parameters: Papp A→B / Papp B→A: dose or concentration left out as unconfirmed; details: human
Protocol: (§7) Permeability (and efflux potential) was measured in the Apical (pH 6.5) to Basolateral (pH 7.4) and Basolateral (pH 7.4) to Apical (pH 6.5) directions across polarized, Caco-2 epithelial monolayers. Compound stocks were tested at a final concentration of […]. The concentration of drug in the receiver well was measured by LC/MS/MS using a standard curve.

[18] = system: Caco-2 epithelial monolayers; test: as above; parameters: Papp A→B / Papp B→A: dose or concentration left out as unconfirmed
Protocol: as §7

CYP3A4 = CYP3A4 induction in primary human hepatocytes; assay type: in vitro ADME
Protocol: (§8) Cytochrome P450 enzyme inhibition was measured using human, cDNA-expressed CYP3A4, 2D6, 2C19, 2C9, and 1A2 enzymes. Analogues of the model substrate coumarin were utilized for each isozyme, at a concentration near the apparent Km of this substrate. Compound stocks were tested using an 8-point dose-response curve in duplicate (ranging from […]). […] For microsome-based CYP inhibition measurements, all substrates were utilized at the approximate Km value. […] Duplicate wells in the induction assay were used to measure both functionality and expression of the CYP enzyme.

CYP2C9 = CYP2C9 induction in primary human hepatocytes; assay type: in vitro ADME
Protocol: as §8

[19] = Human Liver Microsomes, Phase I
[20] = Human Liver Microsomes, Phase I + II

SMILES: N#Cc1ccc(N)cc1Cl [Compound 151]
- Relative Percent of Extracted Ion Chromatogram (XIC) for Phase I metabolites of Compound II [1]: 3%
- Relative Percent of Extracted Ion Chromatogram (XIC) for Phase I metabolites of Compound II [2]: 4%
- Relative Percent of Extracted Ion Chromatogram (XIC) for Phase I metabolites of Compound II [3]: 6%
- Relative Percent of Extracted Ion Chromatogram (XIC) for Phase I metabolites of Compound II [4]: 4%
- Relative Percent of Extracted Ion Chromatogram (XIC) for Phase I metabolites of Compound II [5]: 4%
- Relative Percent of XIC for Phase I and Glucuronide Metabolites of Compound II [6]: 0.8%
- Relative Percent of XIC for Phase I and Glucuronide Metabolites of Compound II [7]: 1.6%
- Relative Percent of XIC for Phase I and Glucuronide Metabolites of Compound II [8]: 2.9%
- Relative Percent of XIC for Phase I and Glucuronide Metabolites of Compound II [9]: 1.4%
- Relative Percent of XIC for Phase I and Glucuronide Metabolites of Compound II [10]: 1.1%
- Relative Percent of XIC for Phase I and II Metabolites of Compound II (human hepatocytes): 0.5%
- Relative Percent of XIC for Phase I and II Metabolites of Compound II (monkey hepatocytes): 2.2%
- Relative Percent of XIC for Phase I and II Metabolites of Compound II (dog hepatocytes): 4.7%
- Relative Percent of XIC for Phase I and II Metabolites of Compound II (Rat Hepatocytes [11]): 0.9%
- Relative Percent of XIC for Phase I and II Metabolites of Compound II (mouse hepatocytes): 0.8%

SMILES: C[C@@](COc1ccc(C#N)cc1)(OC1OC(C(=O)O)C(O)C(O)C1O)C(=O)Nc1ccc(C#N)c(C(F)(F)F)c1 (stereo partly drawn) [Compound 564]
- relative abundance of in vitro metabolites of Compound I (m/z 388) [12]: 1.92
- relative abundance of in vitro metabolites of Compound I (m/z 388) (Rat Hepatocytes [13]): 0.37

SMILES: C[C@](O)(COc1ccc(C#N)cc1)C(=O)Nc1ccc(C#N)c(C(F)(F)F)c1 [Compound I, (S)—N-(4-cyano-3-(trifluoromethyl)phenyl)-3-(4-cyanophenoxy)-2-hydroxy-2-methylpropanamide]
- CLint scaled [14]: < 1 mL/min/kg
- Half-Life [15]: Stable
- Half-Life Phase I [16, 19]: Stable
- microsomal CLint [16, 19]: < 1000 µL/min/mg
- CLint Phase I + II [16, 20]: <1000 µL/min/mg
- Half-Life Phase I + II [16, 20]: Stable
- in vitro half-life (stability in words) ([16]; microsomal and hepatocyte assays, both phase I and phase I/II metabolic conditions): mostly stable
- Papp B→A ([17]; Caco-2): 29 ×10⁻⁶ cm/s
- Papp A→B ([17]; Caco-2, Permeability Classification, classified from Papp (A-B)): > 10 ×10⁻⁶ cm/s
- efflux potential ([18]; Caco-2 permeability assays): low
- Permeability Classification ([18]; classified from Papp (A-B)): high
- induction of CYP3A4 activity (CYP3A4): does not induce
- induction of CYP2C9 activity (CYP2C9): does not induce
